Molecules are shown by their SMILES.

One assay has as its target T1, Proteasome Macropain subunit MB1 (Homo sapiens, UniProt P28074).
T1 sequence (P28074 whole entry): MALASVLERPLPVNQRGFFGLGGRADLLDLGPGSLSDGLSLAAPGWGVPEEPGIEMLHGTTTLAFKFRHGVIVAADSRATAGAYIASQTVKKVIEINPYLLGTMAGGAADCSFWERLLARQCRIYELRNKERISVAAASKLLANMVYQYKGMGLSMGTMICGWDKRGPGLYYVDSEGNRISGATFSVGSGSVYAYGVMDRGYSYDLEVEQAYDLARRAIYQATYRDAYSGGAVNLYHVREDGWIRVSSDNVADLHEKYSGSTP
As to the kind of experiment: Inhibition of human 20S proteasome beta5 subunit using Suc-LLVY-AMC as substrate by fluorescence assay.
As to `COC(=O)[C@@H](NC(=O)N[C@H](C(=O)N[C@H]1CCCCNC(=O)/C=C/[C@H](Cc2cccc(Cl)c2)NC1=O)C(C)C)C(C)C`, the affinity, expressed as Ki, was 963 nM.
The same measure, in the same setting: with `COC(=O)[C@@H](NC(=O)N[C@H](C(=O)N[C@H]1CCCCNC(=O)/C=C/[C@H](Cc2cc(F)cc(F)c2)NC1=O)C(C)C)C(C)C` the figure was 952 nM; with `COC(=O)[C@@H](NC(=O)N[C@H](C(=O)N[C@H]1CCCCNC(=O)/C=C/[C@H](CC(C)C)NC1=O)C(C)C)C(C)C`, 3230 nM; with `COC(=O)[C@@H](NC(=O)N[C@H](C(=O)N[C@H]1CCCCNC(=O)/C=C/[C@H](Cc2cccc(C(F)(F)F)c2)NC1=O)C(C)C)C(C)C`, 7580 nM.
Take `COC(=O)[C@@H](NC(=O)N[C@H](C(=O)N[C@H]1CCCCNC(=O)/C=C/[C@H](Cc2ccccc2Cl)NC1=O)C(C)C)C(C)C`: the Ki was determined as 2110 nM.
Same read-out and setting: in the case of `COC(=O)[C@@H](NC(=O)N[C@H](C(=O)N[C@H]1CCCCNC(=O)/C=C/[C@H](Cc2ccc(Cl)cc2)NC1=O)C(C)C)C(C)C` it was 1240 nM.
The same measure, in the same setting: in the case of `COC(=O)[C@@H](NC(=O)N[C@H](C(=O)N[C@H]1CCCCNC(=O)/C=C/[C@H](Cc2ccccc2)NC1=O)C(C)C)C(C)C` it was 743 nM; in that of `COC(=O)[C@@H](NC(=O)N[C@H](C(=O)N[C@H]1CCCCNC(=O)/C=C/[C@H](Cc2ccccc2F)NC1=O)C(C)C)C(C)C`, 906 nM; in that of `COC(=O)[C@@H](NC(=O)N[C@H](C(=O)N[C@H]1CCCCNC(=O)/C=C/[C@H](Cc2ccc(C)cc2)NC1=O)C(C)C)C(C)C`, 1140 nM.
Still for that read-out and setting: in the case of `COC(=O)[C@@H](NC(=O)N[C@H](C(=O)N[C@H]1CCCCNC(=O)/C=C/[C@H](Cc2cccc(F)c2)NC1=O)C(C)C)C(C)C` it was 592 nM; in that of `COC(=O)[C@@H](NC(=O)N[C@H](C(=O)N[C@H]1CCCCNC(=O)/C=C/[C@H](Cc2cccc(C)c2)NC1=O)C(C)C)C(C)C`, 2350 nM.

The next assay has as its target T2, Proteasome Macropain subunit MB1 (Homo sapiens) (UniProt P28074).
T2 sequence (whole entry): T1 sequence (P28074 whole entry)
In turn, `COC(=O)[C@@H](NC(=O)N[C@H](C(=O)N[C@H]1CCCCNC(=O)/C=C/[C@H](Cc2cc(F)cc(F)c2)NC1=O)C(C)C)C(C)C` registered a Kin of 0.0005 s⁻¹.
In turn, `COC(=O)[C@@H](NC(=O)N[C@H](C(=O)N[C@H]1CCCCNC(=O)/C=C/[C@H](Cc2cccc(F)c2)NC1=O)C(C)C)C(C)C` showed a Kin of 0.000486 s⁻¹.

Broadly, the Ki is the dissociation constant of the complex between target and ligand, obtained from inhibition or displacement. Low readings indicate a stronger hold on the target, high ones a looser hold on the target.

Source of the values: ChEMBL document CHEMBL3612027, “Substrate-guided optimization of the syringolins yields potent proteasome inhibitors with activity against leukemia cell lines” (Bioorg Med Chem, 2015).
